12 compounds from PubChem BioAssay (NCI) can be followed below.

Holding throughout (experiment): inhibition of tumour cell growth, NCI panel, 48 h
Experiment [1] has as its system MDA-MB-435.
Experiment [2] concerns MALME-3M melanoma.
The subject of experiment [3] is SF-539 CNS.
Experiment [4] deals with K-562 leukemia.
Experiment [5] has as its system 786-0 renal.
The test system of experiment [6] is A549 NSCLC.
Experiment [7] deals with UO-31 renal.
The subject of experiment [8] is UACC-257 melanoma.
In experiment [9] the test system is OVCAR-4 ovarian.
Experiment [10] relates to SK-MEL-2 melanoma.
The test system of experiment [11] is HCC-2998 colon.
For experiment [12], the system named is HL-60(TB) leukemia.

Molecules are shown by their SMILES.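 Test compounds were applied to cells in 96-well plates for 48 hours at 5 doses. TGI denotes the concentration required for complete inhibition of growth.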 A value given as a limit tells only on which side of the number the result lay.

Take `CSc1nc(Cl)c2c(n1)Sc1nc3cc4c(cc3n1C2O)OCCO4` (stereo not drawn): the TGI was over 100 µM in experiment [1]; 32.6 µM in [2]; 0.0867 µM in [3]; 17.6 µM in experiment [4]; 14.9 µM in experiment [5]; 14 µM in experiment [6]. For the same compound, the TGI in experiment [7] stood at 16 µM; in [8], 36.1 µM; in experiment [9], 44.2 µM; in [10], 29.2 µM; in [11], 12.1 µM.

As for `CC(C)Sc1nc(C#N)cc2c1CCCC2`, the TGI in experiment [1], in [2], in experiment [3], in experiment [4], in experiment [5] and in [6] was over 100 µM each time. The TGI in experiment [7] was over 100 µM; in experiment [8], over 100 µM; in experiment [9], over 100 µM; in experiment [10], 63.2 µM; in experiment [11] it was over 100 µM.

Regarding `N.N.N.O=[N+]([O-])[O-].O=[N+]([O-])[O-].O=[N+]([O-])[O-].O=[N+]([O-])[O-].[Co+3]`, the TGI in experiment [2], in [3], in experiment [4], in experiment [5], in experiment [6] and in experiment [7] was over 100 µM each time. Further, the TGI in [8], in [9], in experiment [10] and in [12] was over 100 µM throughout.

With `Cc1ccc(-c2c(C#N)c(-c3ccccc3)n(NS(=O)(=O)c3ccccc3)c(=O)c2C#N)cc1`, the TGI in [1], in experiment [2], in experiment [3], in experiment [4], in experiment [5] and in experiment [6] was over 100 µM each time. For the same compound, the TGI in experiment [8], in experiment [9], in experiment [10] and in experiment [11] was over 100 µM each time.

For `c1ccc(C2C3=C(Nc4ncnn42)c2ccccc2C3)cc1` (stereo not drawn), the TGI in experiment [2] is over 100 µM; in experiment [3], 34.2 µM; in experiment [4], over 100 µM; in experiment [5], 78.2 µM; in experiment [6], over 100 µM; in [7], over 100 µM. Further, the TGI in experiment [8], in experiment [9], in experiment [10], in experiment [11] and in experiment [12] was over 100 µM throughout.

For the compound `C=C(C)C12CC(COC(=O)c3ccccc3)C34OC5(OC1C3C1OC1(CO)C(O)C1(O)C(OC(=O)c3ccccc3)C(C)C(C(C)CCCCCCC5O)C14)O2` (stereo not drawn), the TGI is over 79.3 µM in experiment [1]; over 100 µM in experiment [2]; over 100 µM in [3]; over 100 µM in experiment [4]; over 100 µM in experiment [5]; over 100 µM in experiment [7]. In addition, the TGI in experiment [8] is over 100 µM; in experiment [9], over 100 µM; in [10], over 100 µM; in [11], over 64.8 µM.

For `CC(C)c1ccc2[nH]c(O)c(-c3[nH]c4ccccc4c3N=O)c2c1`, the TGI in experiment [1] was 20.5 µM; in experiment [2], 14.4 µM; in experiment [4] it was 17.8 µM; in experiment [5], 16.8 µM; in [6] it was 22.2 µM; in experiment [7] it was 12 µM. Besides, the TGI in experiment [8] is 24.5 µM; in [9], 17.6 µM; in [10], 15.1 µM; in experiment [11] it was 16.1 µM.

`COc1cccc2c(N)c3cccc(C(=O)NCCN(C)C)c3nc12`: the TGI was 1.18 µM in experiment [1]; 0.501 µM in experiment [2]; 0.758 µM in experiment [3]; 0.383 µM in experiment [4]; 1.82 µM in experiment [5]; 2.16 µM in [6]. For the same compound, the TGI stood at 3.04 µM in [7]; 3.41 µM in [8]; 0.656 µM in experiment [9]; 1.05 µM in experiment [10]; 0.971 µM in experiment [11].

On to `COC(=O)C(CCC#N)(CCC#N)C(=O)OC`, for which the TGI in [2], in experiment [3], in [4], in [5], in experiment [6] and in [7] was over 100 µM each time. The TGI in [8], in [11] and in experiment [12] was over 100 µM in each case.

In the case of `CC(O[Si](c1ccccc1)(c1ccccc1)C(C)(C)C)[C@H](NC(=O)OC(C)(C)C)C(=O)O[Si](c1ccccc1)(c1ccccc1)C(C)(C)C` (stereo partly drawn), the TGI in experiment [2] is 34.3 µM; in experiment [4], 40.6 µM; in [5] it was 25.9 µM; in [6], 27.9 µM; in experiment [7], 26.3 µM; in [8] it was 28.8 µM. The TGI in [9] was determined as 16.5 µM; in [11], 34.7 µM; in experiment [12], 31 µM.

On to `O=C(CCCCCCCCC(=O)NN1C(=O)/C(=C\c2ccc(O)c(O)c2)SC1c1ccc(Cl)cc1)NN1C(=O)/C(=C\c2ccc(O)c(O)c2)SC1c1ccc(Cl)cc1` (stereo not drawn), for which the TGI in experiment [1] was over 100 µM; in [2] it was over 100 µM; in experiment [3], 43.8 µM; in experiment [4] it was over 75.9 µM; in experiment [5], 34.4 µM; in experiment [6], over 76.8 µM. Further, the TGI in experiment [7] is over 55 µM; in experiment [8], over 100 µM; in experiment [9], over 100 µM; in [10], over 61.8 µM; in experiment [11], over 100 µM.

With `CCOC(=O)CNC(=O)C(CSCc1ccc(Br)cc1)NC(=O)CCC(N)C(=O)OCC` (stereo not drawn), the TGI in experiment [1], in experiment [3], in experiment [4], in experiment [5], in experiment [6] and in experiment [7] was over 50 µM throughout. Moreover, the TGI in experiment [8], in experiment [9], in experiment [10] and in experiment [11] was over 50 µM each time.
